The source of these data is patent US9493485B2, “Spirocyclic dihydro-thiazine and dihydro-oxazine BACE inhibitors, and compositions and uses thereof” (Imago Pharmaceuticals, Inc., priority 2012, dated 2016).

Like-named read-outs stand apart in the source and are kept apart here.

One experiment has as its system Aβ x-40 levels. The experiment in a line: In vivo reduction of Aβ x-40 levels in Sprague Dawley rat, oral dosing. To be noted: for decrease of the mean Aβ x-40 compared to vehicle control in brain samples / effect on brain Aβ x-40 levels: rat cortical brain, 3 hours post dosing. The protocol: Ability of a compound as described herein to reduce the level of Aβ peptide in vivo was determined in a Sprague Dawley rat model. Compounds were dosed orally in female Sprague Dawley rats, along with a vehicle control, five rats per dose group. Compounds were formulated in 5% DMSO/0.5% methylcellulose, and dosed at various amounts (10 mL/kg), and 10 mL/kg vehicle by oral gavage. CSF was collected from the cistern magna under isoflurane anesthesia, frozen on dry ice and stored at −80° C. until assessed for Aβ peptide levels. […] Cortical brain samples were homogenized in 5 M guanidine and Aβ peptide was quantitated in these brain samples as well as plasma samples in an ELISA assay, where Aβ x-40 ELISA detects Aβ peptide N-terminal sequences containing the transmembrane region and ending at amino acid 40 at the C-terminus. The ELISA was performed as described in Johnson-Wood et al., PNAS February 1997, 94: 1550-1555, using capture antibody 266 (Aβ 16-23 specific) and biotinylated 2G3 (Aβ 40 specific) as reporter antibody. Results of cortical and plasma Aβ x-40 levels were statistically analyzed separately using a one-way Anova with a Dunnets post test analysis at the 0.05 significant level.

For experiment [1], the target named is T1, BACE1 (Homo sapiens (Human), UniProt P56817). The experiment in a line: BACE1 AlphaScreen assay (displacement of biotinylated BACE1 binding site probe). To be noted: read-out: BACE1 AS IC50.
T1 sequence (P56817 46-501): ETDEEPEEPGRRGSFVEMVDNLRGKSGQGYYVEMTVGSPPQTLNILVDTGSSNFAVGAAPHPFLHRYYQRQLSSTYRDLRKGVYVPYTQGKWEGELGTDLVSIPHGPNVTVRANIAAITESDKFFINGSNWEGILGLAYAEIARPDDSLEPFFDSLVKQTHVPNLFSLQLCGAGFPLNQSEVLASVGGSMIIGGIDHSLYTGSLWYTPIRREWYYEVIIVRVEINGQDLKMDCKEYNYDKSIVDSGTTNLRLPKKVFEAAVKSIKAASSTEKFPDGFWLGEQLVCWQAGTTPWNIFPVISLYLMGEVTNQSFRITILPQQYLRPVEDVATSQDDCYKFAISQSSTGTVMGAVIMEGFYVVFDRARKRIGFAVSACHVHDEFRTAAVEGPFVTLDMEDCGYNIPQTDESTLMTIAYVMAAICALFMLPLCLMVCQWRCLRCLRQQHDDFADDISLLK
For experiment [2], the system named is BACE1 inhibition in HEKp293 cells transfected with APP751 gene (SWE293). The experiment in a line: SWE293 cellular assay: reduction of Aβ peptide production, ELISA. To be noted: Homo sapiens, read-out: SWE293 ED50. It counts as cell-based. The method in brief: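 SWE293 cells (HEK293 carrying APP751), plated overnight at 37 °C, received 1:3 serially diluted compound for two successive 2 h exposures with washes between. Medium Aβ was captured on 266-antibody plates, detected with 3D6 antibody and streptavidin-AP fluorescent substrate, and quantified against an Aβ-40 standard curve.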
In general terms: An ELISA detects its analyte on a solid surface through an enzyme-linked reagent.

In experiment [3] the target is T1, BACE1. The experiment in a line: BACE1 FP assay. It counts as biochemical. To be noted: pH 4.5.
For another experiment, the target named is Cathepsin D (Homo sapiens (Human), UniProt P07339). The experiment in a line: Cathepsin D FP assay. It counts as biochemical. To be noted: pH 4.5, read-out: CatD FP IC50. The method in brief: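 AlphaScreen (PBS, 0.01% Tween-20, 0.05% BSA, pH 7.0): compound preincubated 15 min with BACE1 ([…]), then biotinylated binding-site probe 1 h, beads 2 h; IC50 from signal. FP (100 mM sodium acetate, pH 4.5, 0.001% Tween-20): added BACE1 (0.3 nM) or cathepsin D (1.8 nM), 30 min RT.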
Sequence of Cathepsin D (P07339 65-412, species assumed): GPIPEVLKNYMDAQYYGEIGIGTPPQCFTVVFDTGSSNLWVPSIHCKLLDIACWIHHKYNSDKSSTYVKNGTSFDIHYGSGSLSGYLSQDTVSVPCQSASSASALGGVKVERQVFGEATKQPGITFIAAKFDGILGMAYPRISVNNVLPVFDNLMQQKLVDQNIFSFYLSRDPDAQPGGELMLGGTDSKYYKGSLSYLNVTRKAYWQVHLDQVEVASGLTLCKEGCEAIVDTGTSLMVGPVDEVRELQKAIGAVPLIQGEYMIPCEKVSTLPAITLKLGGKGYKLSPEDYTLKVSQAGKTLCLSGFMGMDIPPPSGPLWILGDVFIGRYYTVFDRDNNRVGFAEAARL

The mark [4] stands for this setting: dose at which Aβ level is reduced by 50%, HEKp293 SWE293 cells.

Consider `C[C@@]1(c2cc(NC(=O)c3ccc(Cl)cn3)ccc2F)CC2(CCOCC2)SC(N)=N1` [Compound 151], for which, in the experiment on Aβ x-40 levels (30 mg/kg oral, rat, various timepoints, CSF), the “duration of reduction in Aβ x-40 levels in CSF (relative to 12 hours in brain)” value is “longer”. For the same compound, the “duration of reduction in Aβ x-40 levels in brain samples” value with Aβ x-40 levels (30 mg/kg oral, rat, various timepoints, brain) is on record as “up to 12 hours”.
Regarding `C[C@@]1(c2cc(NC(=O)c3ccc(Cl)cn3)ccc2F)CC2(CC2)OC(N)=N1` [Compound 154], the “decrease of the mean Aβ x-40 compared to vehicle control in brain samples” value in the experiment on Aβ x-40 levels (100 mg/kg oral) worked out at 25%.
For the compound `CC1(c2cc(NC(=O)c3ccc(F)cn3)ccc2F)CC2(CCC2)OC(N)=N1` (centres unmarked) [Compound 125], in the experiment on Aβ x-40 levels (30 or 100 mg/kg oral), the “effect on brain Aβ x-40 levels” value is “no significant effect”.
As to `CC#Cc1cncc(-c2csc([C@]3(C)CC4(CCOCC4)OC(N)=N3)c2)c1` [Compound 104], the “effect on brain Aβ x-40 levels” value in the experiment on Aβ x-40 levels (50 and 200 mg/kg oral) is “no significant effect”.
For the compound `C[C@@]1(c2cc(NC(=O)c3ccc(F)cn3)ccc2F)CC2(CCOCC2)SC(N)=N1` [Compound 148], the “decrease of the mean Aβ x-40 compared to vehicle control in brain samples” value with Aβ x-40 levels (10 mg/kg oral) amounted to 23%; with Aβ x-40 levels (30 mg/kg oral), 31%; in the experiment with Aβ x-40 levels (60 mg/kg oral), 31%; in the experiment on Aβ x-40 levels (100 mg/kg oral) it was 40%.
With `CC1(c2cc(NC(=O)c3ccc(F)cn3)ccc2F)CC2(CCOCC2)SC(N)=N1` (centres unmarked) [Compound 9-147, N-(3-(2-amino-4-methyl-9-oxa-1-thia-3-azaspiro[5.5]undec-2-en-4-yl)-4-fluorophenyl)-5-fluoropicolinamide], the IC50 on BACE1 [1] is 0.008 µM; in experiment [2] (setting [4]), less than 0.004 µM; at BACE1 [3], 0.029 µM; at Cathepsin D, 15.6 µM.
In the same order, the values of `C[C@@]1(c2cc(NC(=O)c3ccc(Cl)cn3)ccc2F)CC2(CC2)OC(N)=N1` [Compound 9-154, (S)—N-(3-(5-amino-7-methyl-4-oxa-6-azaspiro[2.5]oct-5-en-7-yl)-4-fluorophenyl)-5-chloropicolinamide] are 0.0075 µM, 0.02 µM, 0.113 µM and greater than 30 µM.
For the compound `CC1(c2cc(NC(=O)c3ccc(Cl)cn3)ccc2F)CC2(CCOCC2)OC(N)=N1` (centres unmarked) [Compound 9-121, N-(3-(2-amino-4-methyl-1,9-dioxa-3-azaspiro[5.5]undec-2-en-4-yl)-4-fluorophenyl)-5-chloropicolinamide], the IC50 at BACE1 [1] was 0.009 µM; in experiment [2], 0.006 µM; at BACE1 [3] it was 0.073 µM; on Cathepsin D, greater than 30 µM.
On to `COc1cnc(C(=O)Nc2ccc(F)c([C@]3(C)CC4(CCC4)OC(N)=N3)c2)cn1` [Compound 9-135, (S)—N-(3-(6-amino-8-methyl-5-oxa-7-azaspiro[3.5]non-6-en-8-yl)-4-fluorophenyl)-5-methoxypyrazine-2-carboxamide], for which the IC50 was 0.0105 µM on BACE1 [1], 0.027 µM in experiment [2] (setting [4]), 0.281 µM at BACE1 [3] and greater than 30 µM at Cathepsin D.
The like results for `C[C@]1(c2cc(NC(=O)c3ccc(F)cn3)ccc2F)N=C(N)OC2(CCOCC2)C1(F)F` [Compound 9-157, (R)—N-(3-(2-amino-5,5-difluoro-4-methyl-1,9-dioxa-3-azaspiro[5.5]undec-2-en-4-yl)-4-fluorophenyl)-5-fluoropicolinamide] were, in that order, 0.045 µM, 0.166 µM, 0.3 µM and greater than 30 µM.
For `CC#Cc1cncc(-c2csc([C@]3(C)CC4(CCC(F)(F)CC4)OC(N)=N3)c2)c1` [Compound 8-110, (S)-9,9-difluoro-4-methyl-4-(4-(5-(prop-1-ynyl)pyridin-3-yl)thiophen-2-yl)-1-oxa-3-azaspiro[5.5]undec-2-en-2-amine], the IC50 was found to be 0.026 µM on BACE1 [1], 0.305 µM in experiment [2] (setting [4]), 0.96 µM against BACE1 [3] and 5.57 µM at Cathepsin D.
Take `CC#Cc1cncc(-c2csc(C3(C)CC4(CCOCC4)SC(N)=N3)c2)c1` (centres unmarked) [Compound 8-113, 4-methyl-4-(4-(5-(prop-1-ynyl)pyridin-3-yl)thiophen-2-yl)-9-oxa-1-thia-3-azaspiro[5.5]undec-2-en-2-amine]: the IC50 is less than 0.007 µM on BACE1 [1], 0.184 µM in experiment [2] (setting [4]), 0.16 µM on BACE1 [3] and 1.88 µM on Cathepsin D.
Take `C[C@@]1(c2cc(NC(=O)c3ccc(Cl)cn3)ccc2F)CC2(CCC2)OC(N)=N1` [Compound 9-129, (S)—N-(3-(6-amino-8-methyl-5-oxa-7-azaspiro[3.5]non-6-en-8-yl)-4-fluorophenyl)-5-chloropicolinamide]: the IC50 on BACE1 [1] was 0.0083 µM; in experiment [2] (setting [4]) it was 0.037 µM; against BACE1 [3], 0.107 µM; on Cathepsin D, greater than 30 µM.
For the compound `CCCn1cc(-c2ccc(F)c(C3(C)CC4(CCOCC4)OC(N)=N3)c2)cn1` (centres unmarked) [Compound 8-107, 4-(2-fluoro-5-(1-propyl-1H-pyrazol-4-yl)phenyl)-4-methyl-1,9-dioxa-3-azaspiro[5.5]undec-2-en-2-amine], the IC50 on BACE1 [1] came to 1.68 µM; in experiment [2] (setting [4]), 1.73 µM; against BACE1 [3] it was 34.1 µM; on Cathepsin D it was 20.8 µM.
As to `C[C@@]1(c2cc(NC(=O)c3ccc(F)cn3)ccc2F)CC2(CCC2)SC(N)=N1` [Compound 9-144, (S)—N-(3-(6-amino-8-methyl-5-thia-7-azaspiro[3.5]non-6-en-8-yl)-4-fluorophenyl)-5-fluoropicolinamide], the IC50 was 0.008 µM at BACE1 [1], 0.009 µM in experiment [2] (setting [4]), 0.027 µM on BACE1 [3] and greater than 30 µM at Cathepsin D.
As to `CC1(c2cc(NC(=O)c3ccc(F)cn3)ccc2F)N=C(N)OC2(CCOCC2)C1(F)F` (centres unmarked) [Compound 9-155, N-(3-(2-amino-5,5-difluoro-4-methyl-1,9-dioxa-3-azaspiro[5.5]undec-2-en-4-yl)-4-fluorophenyl)-5-fluoropicolinamide], the IC50 on BACE1 [1] is 0.031 µM; in experiment [2] (setting [4]) it was 0.177 µM; against BACE1 [3], 0.277 µM; at Cathepsin D, greater than 30 µM.
